We go through 38 molecules from patent US9944603B2, “Compounds and methods for the treatment of cystic fibrosis” (Flatley Discovery Lab, LLC, priority 2013, dated 2018).

Each structure is given as a SMILES string.

This experiment concerns the target T1, human F508del CFTR (Homo sapiens, UniProt P13569, DEL508-508).
T1 construct: expressed in transfected cells
Put plainly: CFTR-YFP Assay, CFTR Corrector Protocol (YFP flux assay). The class given is cell-based. As to conditions: for Emax: normalized to the positive control, read-out: EMAX (% Efficacy, EMAX normalized to the positive control).

T1 sequence (P13569 with tags, fused parts or gaps DEL508-508): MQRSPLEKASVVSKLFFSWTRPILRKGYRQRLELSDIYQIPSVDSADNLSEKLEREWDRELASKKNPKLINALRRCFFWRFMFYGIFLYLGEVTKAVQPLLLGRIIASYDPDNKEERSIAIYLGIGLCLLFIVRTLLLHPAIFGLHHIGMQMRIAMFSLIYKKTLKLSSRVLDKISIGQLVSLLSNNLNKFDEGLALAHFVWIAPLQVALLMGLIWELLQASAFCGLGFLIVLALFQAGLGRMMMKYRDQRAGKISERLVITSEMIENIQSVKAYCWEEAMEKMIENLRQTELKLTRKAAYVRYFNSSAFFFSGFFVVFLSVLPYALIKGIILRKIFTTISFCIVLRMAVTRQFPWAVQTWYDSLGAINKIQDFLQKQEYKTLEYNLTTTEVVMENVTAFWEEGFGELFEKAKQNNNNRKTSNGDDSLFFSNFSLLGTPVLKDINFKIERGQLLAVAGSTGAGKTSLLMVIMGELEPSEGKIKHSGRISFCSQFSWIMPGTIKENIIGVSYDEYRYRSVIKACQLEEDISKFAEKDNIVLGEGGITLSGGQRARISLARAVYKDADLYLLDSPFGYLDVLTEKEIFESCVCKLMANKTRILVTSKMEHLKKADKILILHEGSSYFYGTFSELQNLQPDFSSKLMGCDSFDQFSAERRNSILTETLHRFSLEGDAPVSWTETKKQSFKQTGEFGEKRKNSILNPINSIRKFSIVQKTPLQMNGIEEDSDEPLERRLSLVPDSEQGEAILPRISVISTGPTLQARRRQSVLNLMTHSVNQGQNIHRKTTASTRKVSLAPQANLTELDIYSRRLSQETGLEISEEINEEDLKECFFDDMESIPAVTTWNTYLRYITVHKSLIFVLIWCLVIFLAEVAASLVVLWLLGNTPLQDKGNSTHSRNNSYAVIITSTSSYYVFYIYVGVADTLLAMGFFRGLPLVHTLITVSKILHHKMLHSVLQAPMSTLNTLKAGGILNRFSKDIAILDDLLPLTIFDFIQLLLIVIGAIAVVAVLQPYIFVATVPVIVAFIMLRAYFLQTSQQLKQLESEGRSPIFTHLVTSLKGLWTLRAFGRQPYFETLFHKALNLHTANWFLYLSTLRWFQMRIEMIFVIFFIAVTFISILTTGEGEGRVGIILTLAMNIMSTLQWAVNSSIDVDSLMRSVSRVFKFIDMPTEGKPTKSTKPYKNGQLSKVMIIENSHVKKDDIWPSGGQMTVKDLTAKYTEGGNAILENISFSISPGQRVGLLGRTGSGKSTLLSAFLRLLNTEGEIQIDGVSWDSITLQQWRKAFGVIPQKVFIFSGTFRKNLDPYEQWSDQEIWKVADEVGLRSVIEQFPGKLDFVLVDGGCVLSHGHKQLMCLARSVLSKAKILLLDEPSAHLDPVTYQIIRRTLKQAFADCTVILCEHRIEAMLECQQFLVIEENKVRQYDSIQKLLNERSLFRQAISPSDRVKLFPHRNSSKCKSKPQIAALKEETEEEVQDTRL

With `Cc1ccnc2c1nc(-c1ccncc1Cl)n2C1CCN(S(=O)(=O)c2ccc3c(c2)OC(F)(F)O3)CC1` [Example 166], the EC50 is below 10 µM and the Emax fell in the range of 30 to 80%.

Take `CCc1ccc(S(=O)(=O)N2CCC(n3c(-c4ccccc4Cl)nc4cc(O)ccc43)CC2)cc1` [Example 167]: the half-maximal effective concentration (EC50) is above 20 µM and the Emax lay within 10 to 30%.

With `CCc1ccc(S(=O)(=O)N2CCC(n3c(-c4ccncc4Cl)nc4cc(O)ccc43)CC2)cc1` [Example 168], the concentration giving a half-maximal response (EC50) is below 10 µM and the Emax lay in the range of 30 to 80%.

In the case of `CCc1ccc(S(=O)(=O)N2CCC(n3c(-c4ccncc4F)nc4c(OC)ccnc43)CC2)cc1` [Example 169], the EC50 was below 10 µM and the Emax lay within 30 to 80%.

`CCc1ccc(S(=O)(=O)N2CCC(n3c(-c4ccncc4Cl)nc4c(OC)ccnc43)CC2)cc1` [Example 170]: the EC50 is above 20 µM and the Emax lay within 10 to 30%.

For `COc1ccc(S(=O)(=O)N2CCC(N(C(=O)c3ccccc3)c3ccccn3)CC2)cc1F` [Example 171], the EC50 was below 10 µM and the Emax is 10 to 30%.

As to `COc1ccc(S(=O)(=O)N2CCC(N(C(=O)c3ccccc3)c3cccc(C)n3)CC2)cc1Cl` [Example 174], the EC50 is above 20 µM and the Emax is 10 to 30%.

With `CCc1ccc(S(=O)(=O)N2CCC(N(C(=O)Nc3ccccc3Cl)c3cccc(C)n3)CC2)cc1` [Example 175, 3-(2-chlorophenyl)-1-(1-((4-ethylphenyl)sulfonyl)piperidin-4-yl)-1-(6-methylpyridin-2-yl)urea], the EC50 was below 10 µM and the Emax lay within 10 to 30%.

Regarding `COc1ccc(S(=O)(=O)N2CCC(N(C(=O)Nc3ccccc3Cl)c3cccc(C)n3)CC2)cc1Cl` [Example 176], the EC50 was below 10 µM and the Emax fell in the range of 10 to 30%.

Consider `CCc1ccc(S(=O)(=O)N2CCC(N(C(=O)Nc3ccccc3Cl)c3ccccn3)CC2)cc1` [Example 177], for which the EC50 is below 10 µM and the Emax fell in the range of 10 to 30%.

Regarding `COc1ccc(S(=O)(=O)N2CCC(N(C(=O)Nc3ccccc3Cl)c3ccccn3)CC2)cc1Cl` [Example 178], the EC50 is below 10 µM and the Emax is 10 to 30%.

Turning to `CCc1ccc(S(=O)(=O)N2CCC(N(C(=O)Nc3ccccc3)c3cccc(C)n3)CC2)cc1` [Example 179], the EC50 is below 10 µM and the Emax was 10 to 30%.

With `CCc1ccc(S(=O)(=O)N2CCC(N(C(=O)Nc3ccccc3)c3ccccn3)CC2)cc1` [Example 180], the EC50 lay in the range of 10 to 20 µM and the Emax was in the range of 10 to 30%.

With `CCc1ccc(S(=O)(=O)N2CCC(N(c3ccccn3)S(=O)(=O)c3ccccc3)CC2)cc1` [Example 181], the EC50 was below 10 µM and the Emax was in the range of 30 to 80%.

On to `CCc1ccc(S(=O)(=O)N2CCC(N(c3ccccn3)S(=O)(=O)c3ccccc3Cl)CC2)cc1` [Example 182], for which the EC50 was below 10 µM and the Emax was 10 to 30%.

Turning to `CCc1ccc(S(=O)(=O)N2CCC(N(c3ccccn3)S(=O)(=O)c3c(C)cc(C)cc3C)CC2)cc1` [Example 183], the EC50 was below 10 µM and the Emax was in the range of 30 to 80%.

For `COc1ccc(S(=O)(=O)N2CCC(N(c3ccccn3)S(=O)(=O)c3c(C)cc(C)cc3C)CC2)cc1Cl` [Example 184], the EC50 is below 10 µM and the Emax was in the range of 10 to 30%.

Take `Cc1cc(C)c(S(=O)(=O)N(c2ccccn2)C2CCN(S(=O)(=O)c3ccc4c(c3)OC(F)(F)O4)CC2)c(C)c1` [Example 185]: the EC50 is below 10 µM and the Emax was in the range of 30 to 80%.

For the molecule `CCc1ccc(S(=O)(=O)N2CCC(N(c3cccc(C)n3)S(=O)(=O)c3ccccc3)CC2)cc1` [Example 186], the EC50 is below 10 µM and the Emax lay in the range of 10 to 30%.

For `COc1ccc(S(=O)(=O)N2CCC(N(c3cccc(C)n3)S(=O)(=O)c3ccccc3)CC2)cc1Cl` [Example 187], the EC50 was below 10 µM and the Emax lay in the range of 10 to 30%.

Take `Cc1cccc(N(C2CCN(S(=O)(=O)c3ccc4c(c3)OC(F)(F)O4)CC2)S(=O)(=O)c2ccccc2)n1` [Example 188]: the EC50 is below 10 µM and the Emax lay in the range of 10 to 30%.

For the molecule `CCc1ccc(S(=O)(=O)N2CCC(N(c3cccc(C)n3)S(=O)(=O)c3ccccc3Cl)CC2)cc1` [Example 189], the EC50 is below 10 µM and the Emax is 30 to 80%.

For the molecule `COc1ccc(S(=O)(=O)N2CCC(N(c3cccc(C)n3)S(=O)(=O)c3ccccc3Cl)CC2)cc1Cl` [Example 190], the EC50 is below 10 µM and the maximal effect (Emax) is 10 to 30%.

For the molecule `Cc1cccc(N(C2CCN(S(=O)(=O)c3ccc4c(c3)OC(F)(F)O4)CC2)S(=O)(=O)c2ccccc2Cl)n1` [Example 191], the EC50 is 10 to 20 µM and the Emax fell in the range of 10 to 30%.

As to `CCc1ccc(S(=O)(=O)N2CCC(N(c3cccc(C)n3)S(=O)(=O)c3c(C)cc(C)cc3C)CC2)cc1` [Example 192], the EC50 was below 10 µM and the Emax fell in the range of 30 to 80%.

Consider `COc1ccc(S(=O)(=O)N2CCC(N(c3cccc(C)n3)S(=O)(=O)c3c(C)cc(C)cc3C)CC2)cc1Cl` [Example 193], for which the EC50 was below 10 µM and the maximal effect (Emax) lay in the range of 30 to 80%.

Turning to `Cc1cc(C)c(S(=O)(=O)N(c2cccc(C)n2)C2CCN(S(=O)(=O)c3ccc4c(c3)OC(F)(F)O4)CC2)c(C)c1` [Example 194], the EC50 is below 10 µM and the Emax is 30 to 80%.

With `CCc1ccc(S(=O)(=O)N2CCC(N(C(=S)c3ccccc3)c3ccccn3)CC2)cc1` [Example 195], the EC50 is below 10 µM and the Emax lay within 30 to 80%.

In the case of `CCc1ccc(S(=O)(=O)N2CCC(N(C(=O)c3ccccc3Cl)c3ccccn3)CC2)cc1` [Example 196], the EC50 is 10 to 20 µM and the Emax fell in the range of 30 to 80%.

Regarding `O=C(c1ccccc1Cl)N(c1ccccn1)C1CCN(S(=O)(=O)c2ccc3c(c2)OCO3)CC1` [Example 197], the EC50 is below 10 µM and the Emax was in the range of 10 to 30%.

For the molecule `COc1ccc(S(=O)(=O)N2CCC(N(C(=O)c3ccccc3Cl)c3ccccn3)CC2)cc1Cl` [Example 198], the EC50 was below 10 µM and the maximal response (Emax) fell in the range of 10 to 30%.

As for `CCc1ccc(S(=O)(=O)N2CCC(N(C(=O)c3ccncc3Cl)c3ccccn3)CC2)cc1` [Example 199], the EC50 was below 10 µM and the Emax was in the range of 10 to 30%.

For `COc1ccc(S(=O)(=O)N2CCC(N(C(=O)c3ccccc3Cl)c3cccc(C)n3)CC2)cc1F` [Example 200], the EC50 is below 10 µM and the Emax lay in the range of 10 to 30%.

With `CCc1ccc(S(=O)(=O)N2CCC(N(C(=O)c3ccccc3Cl)c3cccc(C)n3)CC2)cc1` [Example 201], the EC50 was below 10 µM and the maximal response (Emax) was in the range of 30 to 80%.

As for `Cc1cccc(N(C(=O)c2ccccc2Cl)C2CCN(S(=O)(=O)c3ccc4c(c3)OCO4)CC2)n1` [Example 202], the EC50 was below 10 µM and the Emax lay within 10 to 30%.

For the molecule `COc1ccc(S(=O)(=O)N2CCC(N(C(=O)c3ccccc3Cl)c3ccccn3)CC2)cc1F` [Example 203], the EC50 is below 10 µM and the Emax was 1%.

`O=C(c1ccccc1)N(c1ccccn1)C1CCN(S(=O)(=O)c2ccc3c(c2)OC(F)(F)O3)CC1` [Example 204]: the EC50 is below 10 µM and the Emax lay in the range of 10 to 30%.

`Cc1cccc(N(C(=O)c2ccccc2)C2CCN(S(=O)(=O)c3ccc4c(c3)OC(F)(F)O4)CC2)n1` [Example 205]: the EC50 is below 10 µM and the Emax fell in the range of 10 to 30%.

The term EC50 denotes the concentration at which the effect is half-maximal. The low end stands for a more potent agent, the high end for a less potent agent. What is called Emax is the maximal effect, on the per cent scale that the assay sets.
